Patent publication US11358969B2, “Indole AHR inhibitors and uses thereof” (Ikena Oncology, Inc., priority 2017, dated 2022)
pIC50: −log10 of the molar value. “And” between values parts separate entries of the source, which are not always exact repeats. Identical values can stand only once.

Experiments:
AHR = target: T1, AHR (UniProt P35869); assay: DRE-Luciferase Reporter Assay (Alternate Method) (Example 1B); assay type: cell-based, murine or human; conditions: cell line and AHR activating ligand not specified
T1 construct: IC50
T1 sequence (P35869 1-848): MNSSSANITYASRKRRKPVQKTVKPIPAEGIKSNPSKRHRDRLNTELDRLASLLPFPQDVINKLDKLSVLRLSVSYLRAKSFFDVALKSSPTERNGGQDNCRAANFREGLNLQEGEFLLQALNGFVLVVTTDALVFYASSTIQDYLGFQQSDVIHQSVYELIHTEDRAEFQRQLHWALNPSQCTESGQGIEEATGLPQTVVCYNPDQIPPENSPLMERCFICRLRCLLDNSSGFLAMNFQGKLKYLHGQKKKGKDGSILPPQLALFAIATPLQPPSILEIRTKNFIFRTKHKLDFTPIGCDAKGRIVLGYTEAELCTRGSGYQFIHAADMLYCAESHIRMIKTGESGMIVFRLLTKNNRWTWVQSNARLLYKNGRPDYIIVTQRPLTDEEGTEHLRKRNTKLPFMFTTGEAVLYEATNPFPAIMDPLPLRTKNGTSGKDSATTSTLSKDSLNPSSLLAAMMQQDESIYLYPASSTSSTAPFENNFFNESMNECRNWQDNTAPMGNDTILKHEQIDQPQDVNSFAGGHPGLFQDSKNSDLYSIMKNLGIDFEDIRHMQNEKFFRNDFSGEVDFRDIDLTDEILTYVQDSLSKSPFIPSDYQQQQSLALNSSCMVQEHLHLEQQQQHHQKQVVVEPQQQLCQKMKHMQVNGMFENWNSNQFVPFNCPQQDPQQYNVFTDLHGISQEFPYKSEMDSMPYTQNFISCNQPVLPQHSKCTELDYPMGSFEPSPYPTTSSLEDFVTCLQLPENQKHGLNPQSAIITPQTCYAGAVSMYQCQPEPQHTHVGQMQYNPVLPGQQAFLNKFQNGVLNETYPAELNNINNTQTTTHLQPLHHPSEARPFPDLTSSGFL

[1] = In Vitro Mouse liver S9 Metabolic Stability Assay (Example 1D); assay type: in vitro ADME; conditions: CD-1 mouse liver S9, 1 μM compound, 1 mg/mL S9 protein, 37° C., NADPH regenerating system, UDPGA, PAPS
Protocol: CD-1 mouse liver S9 were purchased from Corning or XenoTech LLC or BioreclamationIVT, LLC or WuXi prepared. The cells were stored at −80° C. in a freezer before use. β-Nicotinamide adenine dinucleotide phosphate (NADP), Glucose 6-phosphate (G6P), Glucose 6-phosphate dehydrogenase from yeast (G6PDH), Uridine 5′-diphophoglucuronic acid trisodium salt (UDPGA) and Adenosine 3′-phosphate 5′-phosphosulfate lithium salt hydrate (PAPS) were available commercially from Sigma.
Compounds were diluted in DMSO to make 10 mM stock solution. 5 μL of this stock solution (10 mM, DMSO) was diluted with 45 μL DMSO and 450 μL 50% Methanol/Water to make intermediate stock solution (100 μM, 45% MeOH, 10% DMSO). 50 μL of intermediate stock solution was diluted with 450 μL 100 mM phosphate buffer to make a final stock solution (10 μM, 4.5% MeOH, 1% DMSO). 10 uL of final stock solution was added to 90 uL liver S9 system (final concentration of 1 μM, 0.45% MeOH, 0.1% DMSO).
Test compounds were incubated at 37° C. with liver S9 (pooled from multiple donors) at 1 μM in the presence of a NADPH regenerating system, UDPGA, and PAPS at 1 mg/mL S9 protein. Time samples (0 and 60 minutes) were removed and immediately mixed with cold acetonitrile containing internal standard (IS). Samples were analyzed by LC/MS/MS and disappearance of test compounds were assessed based on peak area ratios of analyte /IS (no standard curve). All samples were injected and analyzed using LC-MS/MS. The analyte/internal standard peak area ratios were converted to percentage remaining (% Remaining) with the following equation: % Remaining at 60 min=(Peak area ratio of analyte to IS at 60 min/Peak area ratio of analyte to IS at t=0)×100%. Table 5. Mouse Stability Data According to Example 1D.

| pIC50 (AHR) | Mouse S9 Stability: % Remaining After 60 Minutes [1] | Structure (SMILES) |
| --- | --- | --- |
| > 6.30 | 2% | CC(C)c1cnn2c(NCCc3c[nH]c4ccccc34)nc(-c3cncc(F)c3)nc12 [I-16, 2-(5-Fluoro-3-pyridyl)-N-[2-(1H-indol-3-yl)ethyl]-8-isopropyl-pyrazolo[1,5-a][1,3,5]triazin-4-amine] |
| > 6.30 | 26% | CC(C)Oc1cc(NCCc2c[nH]c3ccccc23)nc(-c2cncc(F)c2)n1 [I-21, 2-(5-Fluoro-3-pyridyl)-N-[2-(1H-indol-3-yl)ethyl]-6-isopropoxy-pyrimidin-4-amine] |
| > 6.30 | 11% | CC(C)c1cnc2c(N[C@@H]3CCc4[nH]c5ccccc5c4C3)nc(-c3cncc(F)c3)cn12 [I-30, (3R)—N-[6-(5-Fluoro-3-pyridyl)-3-isopropyl-imidazo[1,2-a]pyrazin-8-yl]-2,3,4,9-tetrahydro-1H-carbazol-3-amine] |
| < 5.82 | 29% | Fc1cncc(-c2nc(N[C@@H]3CCc4[nH]c5ccccc5c4C3)cc(N3CCCC3)n2)c1 [I-36, (3R)—N-[2-(5-Fluoro-3-pyridyl)-6-pyrrolidin-1-yl-pyrimidin-4-yl]-2,3,4,9-tetrahydro-1H-carbazol-3-amine] |
| > 6.30 | 19% | CC(C)c1cnn2c(NCCc3c[nH]c4ccccc34)cc(-c3ccccc3)nc12 [I-45, N-[2-(1H-indol-3-yl)ethyl]-3-isopropyl-5-phenyl-pyrazolo[1,5-a]pyrimidin-7-amine] |
| > 6.30 | 50% | Fc1cncc(-c2cc(NCCc3c[nH]c4ccccc34)n3ncc(C(F)(F)F)c3n2)c1 [I-47, 5-(5-Fluoro-3-pyridyl)-N-[2-(1H-indol-3-yl)ethyl]-3-(trifluoromethyl)pyrazolo[1,5-a]pyrimidin-7-amine] |
| > 6.30 | 5% and 1% | CN1CCN(c2cc(NCCc3c[nH]c4ccccc34)nc(-c3cncc(F)c3)n2)CC1 [I-67, 2-(5-Fluoro-3-pyridyl)-N-[2-(1H-indol-3-yl)ethyl]-6-(4-methylpiperazin-1-yl)pyrimidin-4-amine] |
| 6.00 to 6.30 | 4% | CN1CCN(C(=O)c2cnn3c(NCCc4c[nH]c5ccccc45)cc(-c4cncc(F)c4)nc23)CC1 [I-68, [5-(5-Fluoro-3-pyridyl)-7-[2-(1H-indol-3-yl)ethylamino]pyrazolo[1,5-a]pyrimidin-3-yl]-(4-methylpiperazin-1-yl)methanone] |
| > 6.30 | 3% | CC(C)Oc1cc(-c2cncc(F)c2)nc(NCCc2c[nH]c3ccccc23)n1 [I-72, 4-(5-Fluoro-3-pyridyl)-N-[2-(1H-indol-3-yl)ethyl]-6-isopropoxy-pyrimidin-2-amine] |
| > 6.30 | 1% | NC(=O)c1cnn2c(NCCc3c[nH]c4ccccc34)cc(-c3cncc(F)c3)nc12 [I-78, 5-(5-Fluoro-3-pyridyl)-7-[2-(1H-indol-3-yl)ethylamino]pyrazolo[1,5-a]pyrimidine-3-carboxamide] |
| > 6.30 | 2% | CC(C)c1cnn2c(NCCc3c[nH]c4ccccc34)cc(-c3cncc(C#N)c3)nc12 [I-81, 5-[7-[2-(1H-indol-3-yl)ethylamino]-3-isopropyl-pyrazolo[1,5-a]pyrimidin-5-yl]pyridine-3-carbonitrile] |
| > 6.30 | 11% | CC(C)(C)c1cnn2c(NCCc3c[nH]c4ccccc34)cc(-c3cncc(F)c3)nc12 [I-90, 3-tert-Butyl-5-(5-fluoro-3-pyridyl)-N-[2-(1H-indol-3-yl)ethyl]pyrazolo[1,5-a]pyrimidin-7-amine] |
| > 6.30 | 0% | CON(C)C(=O)c1cnn2c(NCCc3c[nH]c4ccccc34)cc(-c3cncc(F)c3)nc12 [I-92, 5-(5-Fluoro-3-pyridyl)-7-[2-(1H-indol-3-yl)ethylamino]-N-methoxy-N-methyl-pyrazolo[1,5-a]pyrimidine-3-carboxamide] |
| > 6.30 | 36% | CC(C)c1cnn2c(NCCc3c[nH]c4c(F)cc(F)cc34)nc(-c3cncc(F)c3)nc12 [I-96, N-[2-(5,7-Difluoro-1H-indol-3-yl)ethyl]-2-(5-fluoro-3-pyridyl)-8-isopropyl-pyrazolo[1,5-a][1,3,5]triazin-4-amine] |
| – | 0% | CC(C)c1cnn2c(N[C@H](C)Cc3c[nH]c4ccccc34)cc(-c3cncc(F)c3)nc12 [I-98b] |
| > 6.30 | 1% | CC(C)c1cnn2c(NCCc3c[nH]c4cccnc34)nc(-c3cncc(F)c3)nc12 [I-101, 2-(5-Fluoro-3-pyridyl)-8-isopropyl-N-[2-(1H-pyrrolo[3,2-b]pyridin-3-yl)ethyl]pyrazolo[1,5-a][1,3,5]triazin-4-amine] |
| > 6.30 | 8% | Fc1cncc(-c2nc(NCCc3c[nH]c4ccccc34)cc(N3CCCC3)n2)c1 [I-105, 2-(5-Fluoro-3-pyridyl)-N-[2-(1H-indol-3-yl)ethyl]-6-pyrrolidin-1-yl-pyrimidin-4-amine] |
| > 6.30 | 1% | CC(C)c1cnc2c(NCCc3c[nH]c4ccccc34)nc(-c3cncc(F)c3)cn12 [I-106, 6-(5-Fluoro-3-pyridyl)-N-[2-(1H-indol-3-yl)ethyl]-3-isopropyl-imidazo[1,2-a]pyrazin-8-amine] |
| > 6.30 | 10% | CC(C)c1cnn2c(NC3Cc4ccc(O)cc4C3)cc(-c3cncc(F)c3)nc12 (centres unmarked) [I-109, 2-[[5-(5-Fluoro-3-pyridyl)-3-isopropyl-pyrazolo[1,5-a]pyrimidin-7-yl]amino]indan-5-ol] |
| < 5.82 | 28% | CC(C)c1ccc2c(N[C@@H]3CCc4[nH]c5ccccc5c4C3)nc(-c3cncc(F)c3)nn12 [I-156] |
| > 6.30 | 54% | CC(C)n1cnc2c(N[C@@H]3CCc4[nH]c5ccccc5c4C3)nc(-c3cncc(F)c3)nc21 [I-162, (3R)—N-[2-(5-Fluoro-3-pyridyl)-9-isopropyl-purin-6-yl]-2,3,4,9-tetrahydro-1H-carbazol-3-amine] |
| > 6.30 | 0% | Cc1cnn2c(NCCc3c[nH]c4ccccc34)nc(-c3cncc(F)c3)nc12 [I-164, 2-(5-Fluoro-3-pyridyl)-N-[2-(1H-indol-3-yl)ethyl]-8-methyl-pyrazolo[1,5-a][1,3,5]triazin-4-amine] |
| > 6.30 | 3% | Fc1cncc(-c2nc(N[C@@H]3CCc4[nH]c5ccccc5c4C3)n3nccc3n2)c1 [I-165, (3R)—N-[2-(5-Fluoro-3-pyridyl)pyrazolo[1,5-a][1,3,5]triazin-4-yl]-2,3,4,9-tetrahydro-1H-carbazol-3-amine] |
| > 6.30 | 4% | CC(C)c1cnn2c(NCCc3cc[nH]c3)nc(-c3cncc(F)c3)nc12 [I-166, 2-(5-Fluoro-3-pyridyl)-8-isopropyl-N-[2-(1H-pyrrol-3-yl)ethyl]pyrazolo[1,5-a][1,3,5]triazin-4-amine] |
